Where a name gives a salt, the structure may show the parent alone. Read-outs that look alike come from different tables or passages of the source.
Tests used:
[1] = Urinary excretion after intravenous drug cocktail in WT and KO rats; format: in vivo, rat; conditions: KO vs WT rats, i.v. cocktail, urine to 12 h
Method: The blood samples were centrifuged at 8000× g for 10 min and the supernatant was stored at −80 °C for detection.

[2] = UTs concentration and renal uptake ratio detection in WT and KO rats; format: in vivo, rat; conditions: for plasma concentration of endogenous UT, KO compared with WT rats / renal uptake ratio of endogenous UT, KO compared with WT rats: 4W and/or 7W rats, n = 7; for urine concentration of endogenous UT, KO compared with WT rats: 12-h urine, 4W and 7W rats
Method: We collected blood, 12-h urine and kidney tissue samples of 4W and 7W WT and KO rats. The concentrations of UTs were measured by the liquid chromatography-tandem mass spectrometry (LC-MS/MS), which consisted of an Agilent 1260 liquid chromatography and a 6460 triple-quadrupole mass spectrometer operated in the electrospray ionization mode (Agilent Technologies, Santa Clara, CA, USA). Chromatographic separations were performed on an Agilent ZORBAX RR StableBond C18 analytical guard column (4.6 mm × 100 mm, 3.5 µm, Agilent Technologies, Santa Clara, CA, USA) at 30 °C. The MS parameters are shown in Supporting Information Table S1. […] The internal standard used in the positive ion mode was d3-creatinine, and in the negative ion mode was d5-hippuric acid.

[3] = furosemide ref 19; PAH ref 17, 52; cited from earlier work
[4] = Slc22a6/Slc22a8-/- rats, i.v. cocktail, mean ± S.D., n = 5
[5] = WT rats, i.v. cocktail, mean ± S.D., n = 5

Molecule | plasma concentration of endogenous UT, KO compared with WT rats [2] | renal uptake ratio of endogenous UT, KO compared with WT rats [2] | other results
inulin |  |  | urinary excretion / urine concentration, KO compared with WT rats [1]: significantly decreased; plasma concentration, KO compared with WT rats (KO vs WT rats, i.v. cocktail): much higher; AUC(0–12) (Slc22a6/Slc22a8-/- rats, i.v. cocktail (PAH 5 mg/kg, metformin 5 mg/kg, inulin 100 mg/kg), mean ± S.D., n = 5): 14,208.11 ± 1433.67 ng/mL·min; AUC(0–∞) [4]: 16,434.89 ± 1696.15 ng/mL·min; CL/F [4]: 6137.27 ± 639.31; Cmax [4]: 376.40 ± 36.13 ng/mL; MRT(0–12) [4]: 35.34 ± 4.08 min; MRT(0–∞) [4]: 37.99 ± 4.20 min; V1/F [4]: 185,957.58 ± 15,232.62 L/kg; t1/2α [4]: 5.23 ± 2.51 min; CL/F [5]: 7427.26 ± 724.03; Cmax [5]: 324.47 ± 33.41 ng/mL; MRT(0–12) [5]: 28.71 ± 5.54 min; MRT(0–∞) [5]: 34.03 ± 8.70 min; V1/F [5]: 241,341.96 ± 36672.44 L/kg; t1/2α [5]: 14.75 ± 4.72 min
Cc1ccc(O[C@@H]2O[C@H](C(=O)O)[C@@H](O)[C@H](O)[C@H]2O)cc1 [p-cresol glucuronide] | significantly lower | much higher | 
O=c1[nH]c(=O)c2[nH]c(=O)[nH]c2[nH]1 [uric acid] | significantly increased | obviously decreased | 
Cn1cnc2c(ncn2[C@@H]2O[C@H](CO)[C@@H](O)[C@H]2O)c1=O [1-methyl-inosine] | significantly increased | obviously decreased | urine concentration of endogenous UT, KO compared with WT rats [2]: clearly decreased
CN1CC(=O)NC1=N [creatinine] | not significantly increased |  | 
O=C(O)CNC(=O)c1ccccc1 [hippuric acid] | significantly increased | obviously decreased | 
O=S(=O)([O-])Oc1c[nH]c2ccccc12.[K+] [3-indoxyl sulfate potassium salt] | significantly increased | obviously decreased | 
Cc1ccc(OS(=O)(=O)O)cc1 [p-cresol sulfate] | significantly increased | obviously decreased | 
OC[C@H]1O[C@@H](Oc2c[nH]c3ccccc23)[C@H](O)[C@@H](O)[C@@H]1O [3-indolyl-β-D-glucopyranoside] | significantly increased | obviously decreased | 
O=C(O)c1cc(=O)[nH]c(=O)[nH]1 [orotic acid] | significantly increased | obviously decreased | 
O=C(O)[C@H]1O[C@@H](Oc2ccccc2)[C@H](O)[C@@H](O)[C@@H]1O [phenyl-β-D-glucuronide] | significantly lower | much higher | 
CN(C)c1nc2c(ncn2[C@@H]2O[C@H](CO)[C@@H](O)[C@H]2O)c(=O)[nH]1 [N2,N2-dimethylguanosine] |  |  | urine concentration of endogenous UT, KO compared with WT rats [2]: clearly decreased
O=C(O)CNC(=O)C=Cc1ccccc1 [N-(cinnamoyl)glycine] | significantly lower | much higher | 
Nc1ccccc1C(=O)C[C@@H](N)C(=O)O [D-kynurenine] | significantly increased | obviously decreased | 
CCc1ccc(OS(=O)(=O)[O-])cc1.[K+] [4-ethylphenyl sulfate] | significantly increased | obviously decreased | urine concentration of endogenous UT, KO compared with WT rats [2]: increased
CC(=O)Nc1ccn([C@@H]2O[C@H](CO)[C@@H](O)[C@H]2O)c(=O)n1 [N-acetylcytidine] | significantly increased | obviously decreased | 
N[C@@H](CCCCNCC(=O)O)C(=O)O [N6-(carboxymethyl)-l-lysine] | significantly increased | obviously decreased | 
CC(=O)N[C@@H](CCCN=C(N)N)C(=O)O [N-acetyl-L-arginine] | significantly increased | obviously decreased | 
Nc1ccc(C(=O)NCC(=O)O)cc1 [PAH, p-aminohippuric acid] |  |  | plasma protein binding rate [3]: low
